The values below are quoted from earlier work in paper PMC7395068, “The evolution of strategies to minimise the risk of human drug-induced liver injury (DILI) in drug discovery and development” (Archives of Toxicology, 2020).

The conditions of the data set: cited from earlier work.
Where [1] appears, read: LTKB DILIrank category, ref Chen 2016.
Setting [2] is: binary DILI call, ref Chen 2016.
The mark [3] stands for this setting: binary in vivo human DILI call, ref Chen 2016.
The mark [4] stands for this setting: human DILI, LTKB DILIrank category, ref Chen 2016.
Where [5] appears, read: binary in vivo DILI call given beside the severity category, ref Chen 2016.
The mark [6] stands for this setting: human DILI concern category (LTKB DILIrank), ref Chen 2016.

Read-outs that look alike come from different tables or passages of the source.

In the case of `O=C1C(O)=C([C@H]2CC[C@H](c3ccc(Cl)cc3)CC2)C(=O)c2ccccc21` [atovaquone], under setting [1], the DILI severity category result is recorded as “Ambiguous DILI-concern”. The “DILI +VE (5-8), DILI -VE (-4)” value under setting [2] is “-VE”. With `Nc1ncn([C@H]2C[C@H](O)[C@@H](CO)O2)c(=O)n1` [decitabine], under setting [3], the “DILI +VE (5-8), DILI -VE (-4)” value is “-VE”. Under setting [4], the DILI severity category result was “Ambiguous DILI-concern”. Regarding `N#Cc1ccc(C(c2ccc(C#N)cc2)n2cncn2)cc1` [letrozole], under setting [3], the “DILI +VE (5-8), DILI -VE (-4)” value is “+VE”. The DILI severity category entry under setting [4] is “vLess-DILI-Concern”.

Turning to `COC(=O)[C@@H]1CC2=CC(=O)CC[C@]2(C)[C@@]23O[C@@H]2C[C@@]2(C)[C@@H](CC[C@@]24CCC(=O)O4)[C@H]13` [eplerenone], the “DILI +VE (5-8), DILI -VE (-4)” value under setting [3] is “-VE”. Under setting [4], the DILI severity category result is reported as “Ambiguous DILI-concern”.

For the molecule `O=P(O)(O)C(Sc1ccc(Cl)cc1)P(=O)(O)O` [tiludronate], the “DILI +VE (5-8), DILI -VE (-4)” value under setting [5] is “-VE”. Also, the DILI severity category entry under setting [6] is “vNo-DILI-Concern”. `COc1ccc2cc(CCC(C)=O)ccc2c1` [nabumetone]: under setting [5], the “DILI +VE (5-8), DILI -VE (-4)” value is given as “-VE”. Further, the DILI severity category entry under setting [6] is given as “Ambiguous DILI-concern”. With `O=C(O)CN(CCN(CC(=O)O)CC(=O)O)CC(=O)O` [edetic acid], under “in vivo”, the “DILI +VE (5-8), DILI -VE (-4)” value was “-VE” and the DILI severity category result is “Ambiguous DILI-concern”. As to ecallantide, for the setting “in vivo”, the “DILI +VE (5-8), DILI -VE (-4)” value was “-VE” and the DILI severity category result was “vNo-DILI-Concern”. Take `CCN(CC)CCN1C(=O)CN=C(c2ccccc2F)c2cc(Cl)ccc21` [flurazepam]: the “DILI +VE (5-8), DILI -VE (-4)” value under setting [3] was “+VE”. Besides, the DILI severity category result under setting [4] is on record as “vLess-DILI-Concern”.

Turning to `CCCN(CCC)CCc1cccc2c1CC(=O)N2` [ropinirole], the “DILI +VE (5-8), DILI -VE (-4)” value under setting [5] is on record as “+VE”. Moreover, the DILI severity category entry under setting [6] is on record as “vLess-DILI-Concern”. In the case of somatropin recombinant, under “in vivo”, the “DILI +VE (5-8), DILI -VE (-4)” value is recorded as “-VE” and the DILI severity category result is recorded as “vNo-DILI-Concern”. For the molecule `CCCCCN(C)CCC(O)(P(=O)(O)O)P(=O)(O)O` [ibandronate], the “DILI +VE (5-8), DILI -VE (-4)” value under setting [3] is listed as “-VE”. The DILI severity category entry under setting [4] is given as “vNo-DILI-Concern”. As to `CCC(C)C1(CC)C(=O)NC(=O)NC1=O` (stereo not drawn) [butabarbital], the DILI severity category entry under setting [1] was “Ambiguous DILI-concern”. For the same molecule, the “DILI +VE (5-8), DILI -VE (-4)” value under setting [2] is listed as “-VE”. In the case of `CC[C@]1(O)C[C@H]2CN(CCc3c([nH]c4ccccc34)[C@@](C(=O)OC)(c3cc4c(cc3OC)N(C=O)[C@H]3[C@@](O)(C(=O)OC)[C@H](OC(C)=O)[C@]5(CC)C=CCN6CC[C@]43[C@@H]65)C2)C1` [vincristine], under setting [1], the DILI severity category result is listed as “vLess-DILI-Concern”. For the setting “binary human DILI assignment, ref Chen 2016”, the “DILI +VE (5-8), DILI -VE (-4)” value is recorded as “+VE”. For the molecule `CCC[C@H](N[C@@H](C)C(=O)N1[C@H](C(=O)O)C[C@@H]2CCCC[C@@H]21)C(=O)OCC` [perindopril], the “DILI +VE (5-8), DILI -VE (-4)” value under setting [5] is “-VE”. Moreover, under setting [6], the DILI severity category entry is on record as “Ambiguous DILI-concern”. On to `Cc1cc(C)cc(OCC2CNC(=O)O2)c1` (stereo not drawn) [metaxalone], for which the “DILI +VE (5-8), DILI -VE (-4)” value under setting [5] was “+VE”. Also, the DILI severity category entry under setting [6] is recorded as “vLess-DILI-Concern”.

With `CCCCCc1cc(O)c2c(c1)OC(C)(C)[C@@H]1CCC(C)=C[C@@H]21` [marinol], under “in vivo”, the “DILI +VE (5-8), DILI -VE (-4)” value was “-VE” and the DILI severity category result is recorded as “Ambiguous DILI-concern”. For the molecule Sodium polystyrene sulfonate, for the setting “in vivo”, the “DILI +VE (5-8), DILI -VE (-4)” value is on record as “-VE” and the DILI severity category entry is “vNo-DILI-Concern”.

Consider alglucosidase alfa, for which, where the note is “in vivo”, the “DILI +VE (5-8), DILI -VE (-4)” value is “-VE” and the DILI severity category entry is “vNo-DILI-Concern”. Consider `N[C@@H](CS)C(=O)O` [l-cysteine], for which, where the note is “in vivo”, the “DILI +VE (5-8), DILI -VE (-4)” value was “-VE” and the DILI severity category result was “Ambiguous DILI-concern”. For the molecule `O=C(O)C(=O)O.[NH-][C@@H]1CCCC[C@H]1[NH-].[Pt+2]` [oxaliplatin], the “DILI +VE (5-8), DILI -VE (-4)” value under setting [5] was “+VE”. Further, the DILI severity category result under setting [6] was “vMost-DILI-Concern”. With `CCCCCCCCCC(=O)O[C@H]1CC[C@H]2[C@@H]3CCC4=CC(=O)CC[C@@H]4[C@H]3CC[C@]12C` [nandrolone decanoate], under setting [5], the “DILI +VE (5-8), DILI -VE (-4)” value is “+VE”. Under setting [6], the DILI severity category entry is given as “vMost-DILI-Concern”.

With `O=C1CCCC(=O)C1C(=O)c1ccc(C(F)(F)F)cc1[N+](=O)[O-]` [nitisinone], the “DILI +VE (5-8), DILI -VE (-4)” value under setting [5] is recorded as “-VE”. In addition, under setting [6], the DILI severity category result was “Ambiguous DILI-concern”. As for `COc1ccccc1OCCNCC(O)COc1cccc2[nH]c3ccccc3c12` (stereo not drawn) [carvedilol], the DILI severity category entry under setting [1] is recorded as “vLess-DILI-Concern”.

In the case of `COC(=O)[C@H](c1ccccc1)[C@H]1CCCCN1` [dexmethylphenidate], where the note is “in vivo”, the “DILI +VE (5-8), DILI -VE (-4)” value was “+VE” and the DILI severity category entry is “vLess-DILI-Concern”. With `Cc1nnc2n1-c1ccc(Cl)cc1C(c1ccccc1Cl)=NC2` [triazolam], under “in vivo”, the “DILI +VE (5-8), DILI -VE (-4)” value is on record as “-VE” and the DILI severity category entry is “Ambiguous DILI-concern”.

As for `C=CCN1C[C@H](C(=O)N(CCCN(C)C)C(=O)NCC)C[C@@H]2c3cccc4[nH]cc(c34)C[C@H]21` [cabergoline], the DILI severity category result under setting [1] is “vNo-DILI-Concern”. In addition, the “DILI +VE (5-8), DILI -VE (-4)” value under setting [2] is listed as “-VE”. With natalizumab, for the setting “in vivo”, the “DILI +VE (5-8), DILI -VE (-4)” value is on record as “+VE” and the DILI severity category entry is “vMost-DILI-Concern”. For the molecule `CO/N=C(\C(=O)N[C@@H]1C(=O)N2C(C(=O)O)=C(/C=C\c3scnc3C)CS[C@H]12)c1csc(N)n1` [cefditoren], under setting [1], the DILI severity category entry is given as “Ambiguous DILI-concern”. In addition, the “DILI +VE (5-8), DILI -VE (-4)” value under setting [2] was “-VE”.

With `CC(N)Cc1ccccc1` (stereo not drawn) [amphetamine], where the note is “in vivo”, the “DILI +VE (5-8), DILI -VE (-4)” value is recorded as “+VE” and the DILI severity category entry was “vLess-DILI-Concern”. For `CO[C@H]1C[C@@H]2CC[C@@H](C)[C@@](O)(O2)C(=O)C(=O)N2CCCC[C@H]2C(=O)O[C@H]([C@H](C)C[C@@H]2CC[C@@H](O)[C@H](OC)C2)CC(=O)[C@H](C)/C=C(\C)[C@@H](O)[C@@H](OC)C(=O)[C@H](C)C[C@H](C)/C=C/C=C/C=C/1C` [sirolimus], the “DILI +VE (5-8), DILI -VE (-4)” value under setting [5] was “+VE”. For the same molecule, under setting [6], the DILI severity category entry is “vLess-DILI-Concern”. Regarding `CC[C@H](C)C[C@H](C)CCCCCCCCC(=O)N[C@H]1C[C@@H](O)[C@@H](NCCN)NC(=O)[C@@H]2[C@@H](O)CCN2C(=O)[C@H]([C@H](O)CCN)NC(=O)[C@H]([C@H](O)[C@@H](O)c2ccc(O)cc2)NC(=O)[C@@H]2C[C@@H](O)CN2C(=O)[C@H]([C@@H](C)O)NC1=O` [caspofungin], the DILI severity category result under setting [1] is given as “Ambiguous DILI-concern”. Further, the “DILI +VE (5-8), DILI -VE (-4)” value under setting [2] was “-VE”. As to `CC(=O)[O-].CC(=O)[O-].[Ca+2]` [calcium acetate], under “in vivo”, the “DILI +VE (5-8), DILI -VE (-4)” value is “-VE” and the DILI severity category entry was “vNo-DILI-Concern”. For `C[C@@H]1[C@H](O)[C@@H](C)/C=C/C=C/CC/C=C/C=C/C=C/C=C/C(O[C@H]2O[C@H](C)[C@@H](O)[C@H](N)[C@@H]2O)CC2O[C@](O)(CC(O)C(O)CCC(O)CC(O)CC(O)CC(=O)O[C@H]1C)CC(O)C2C(=O)O` (stereo partly drawn) [nystatin], the “DILI +VE (5-8), DILI -VE (-4)” value under setting [5] is “-VE”. The DILI severity category entry under setting [6] is on record as “vNo-DILI-Concern”. With `Nc1ccn([C@@H]2O[C@H](CO)[C@@H](O)C2(F)F)c(=O)n1` [gemcitabine], the “DILI +VE (5-8), DILI -VE (-4)” value under setting [3] is recorded as “+VE”. Besides, the DILI severity category result under setting [4] is recorded as “vMost-DILI-Concern”.
